The subject of the first test is TFEB. The experiment in a line: TFEB nuclear translocation assay, HeLa wt cells. Type of test: cell-based. The settings on record: 2 hrs compound treatment, Table 1 does not say HeLa wt or TRPML1 KO. Put shortly:
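Read-out is the ratio of TFEB immunofluorescence in the nucleus to that in a ring just outside it, measured by automated imaging. HeLa wt cells received compounds for 2 hrs at 37° C before fixation and staining; AC50 values come from this ratio.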
Usually AC50 stands for the concentration at which the activity in the assay is half-maximal. A lower AC50 goes with activity at low concentration. `CC(c1cccc(F)c1N1CCC(CN2C3COCC2C3)CC1)S(=O)(=O)c1ccc(S(=O)(=O)N(C)C)cc1` (centres unmarked) [Compound A-860, 4-(1-{3-fluoro-2-[4-({3-oxa-6-azabicyclo[3.1.1]heptan-6-yl}methyl)piperidin-1-yl]phenyl}ethanesulfonyl)-N,N-dimethylbenzene-1-sulfonamide] showed an AC50 of 2.01 to 8 µM.

Regarding `Cc1cnc(N2CCC(CN3CCC(F)(F)CC3)CC2)c(C(C)S(=O)(=O)c2ccc3c(c2)CCC3)c1` (single isomer, unassigned) [Compound A-999, 2-(4-((4,4-difluoropiperidin-1-yl)methyl)piperidin-1-yl)-3-(1-((2,3-dihydro-1H-inden-5-yl)sulfonyl)ethyl)-5-methylpyridine], the AC50 was at most 2 µM.

For `CC(c1cccc(C#N)c1N1CCC(CN2C[C@@H](C)O[C@@H](C)C2)CC1)S(=O)(=O)c1ccc(S(=O)(=O)N(C)C)cc1` (single isomer, unassigned) [Compound A-854, 4-((1-(3-cyano-2-(4-((2,6-dimethylmorpholino)methyl)piperidin-1-yl)phenyl)ethyl)sulfonyl)-N,N-dimethylbenzenesulfonamide], the AC50 is at most 2 µM.

Still in this test, the particulars now being: Homo sapiens, HeLa, 2 h, 2 hrs compound treatment, Table 1 does not say HeLa wt or TRPML1 KO.
In turn, `N#Cc1ccc(S(=O)(=O)Nc2ccccc2N2CCC(c3ccc(Cl)cc3F)CC2)cc1` [Compound A-101, N-{2-[4-(4-chloro-2-fluorophenyl)piperidin-1-yl]phenyl}-4-cyanobenzene-1-sulfonamide] showed an AC50 of 2.01 to 8 µM.

In turn, `CN1CCC2(CCN(c3ccccc3NS(=O)(=O)c3ccc(S(=O)(=O)N(C)C)cc3)CC2)C1=O` [Compound A-244, N1,N1-dimethyl-N4-(2-{2-methyl-1-oxo-2,8-diazaspiro[4.5]decan-8-yl}phenyl)benzene-1,4-disulfonamide] displayed an AC50 of at least 10 µM.

In turn, `CC(c1cccc(F)c1N1CCC(CN2C[C@H]3C[C@@H](C2)O3)CC1)S(=O)(=O)c1ccc(S(=O)(=O)N(C)C)cc1` (stereo partly drawn) [Compound A-837, 4-{1-[3-fluoro-2-(4-{[(1R,5S)-6-oxa-3-azabicyclo[3.1.1]heptan-3-yl]methyl}piperidin-1-yl)phenyl]ethanesulfonyl}-N,N-dimethylbenzene-1-sulfonamide] yielded an AC50 of at most 2 µM.

Molecule `COCC1(C)CCN(c2ccccc2NS(=O)(=O)c2ccc(S(C)(=O)=O)c(F)c2)CC1` [Compound A-731, 3-fluoro-4-methanesulfonyl-N-{2-[4-(methoxymethyl)-4-methylpiperidin-1-yl]phenyl}benzene-1-sulfonamide] showed an AC50 of at least 10 µM.

`CN(C)S(=O)(=O)c1ccc(S(=O)(=O)Nc2ccccc2N2CCC(C(F)F)CC2)cc1` [Compound A-585, N4-{2-[4-(difluoromethyl)piperidin-1-yl]phenyl}-N1,N1-dimethylbenzene-1,4-disulfonamide] returned a half-maximal activity concentration (AC50) of at most 2 µM.

For `CN(C)S(=O)(=O)c1ccc(S(=O)(=O)Nc2ccccc2N2CCC3(CC2)COC(C)(C)C3)c(F)c1` [Compound A-653, N4-(2-{3,3-dimethyl-2-oxa-8-azaspiro[4.5]decan-8-yl}phenyl)-3-fluoro-N1,N1-dimethylbenzene-1,4-disulfonamide], the AC50 was 2.01 to 8 µM.

For the molecule `CC1(C)CC2(CCN(c3ccccc3NS(=O)(=O)c3ccc4c(c3)C(C)(C)CO4)CC2)CO1` [Compound A-742, N-(2-{3,3-dimethyl-2-oxa-8-azaspiro[4.5]decan-8-yl}phenyl)-3,3-dimethyl-2,3-dihydro-1-benzofuran-5-sulfonamide], the AC50 is at most 2 µM.

With `CC(C)(C)C(=O)N1CCN(c2ccccc2NS(=O)(=O)Cc2cccc(Br)c2)CC1` [Compound A-485, 1-(3-bromophenyl)-N-{2-[4-(2,2-dimethylpropanoyl)piperazin-1-yl]phenyl}methanesulfonamide], the AC50 is 2.01 to 8 µM.

Molecule `COCC1(C)CCN(c2ccccc2NS(=O)(=O)c2ccc(OCC3CC3)cc2)CC1` [Compound A-555, 4-(cyclopropylmethoxy)-N-{2-[4-(methoxymethyl)-4-methylpiperidin-1-yl]phenyl}benzene-1-sulfonamide] gave an AC50 of 2.01 to 8 µM.

The molecule `CN(C)S(=O)(=O)c1ccc(S(=O)(=O)Nc2ccccc2N2CCC(c3ccccc3F)CC2)cc1` [Compound A-10, N4-{2-[4-(2-fluorophenyl)piperidin-1-yl]phenyl}-N1,N1-dimethylbenzene-1,4-disulfonamide] showed an AC50 of at most 2 µM.

As to `CN(C)S(=O)(=O)c1ccc(S(=O)(=O)N(C)c2ccccc2N2CCC(c3ccc(Cl)cc3F)CC2)cc1` [Compound A-104, N1-{2-[4-(4-chloro-2-fluorophenyl)piperidin-1-yl]phenyl}-N1,N4,N4-trimethylbenzene-1,4-disulfonamide], the AC50 was at most 2 µM.

In turn, `CN(C)S(=O)(=O)c1ccc(S(=O)(=O)Nc2ccccc2N2CCC(C(C)(C)O)CC2)cc1` [Compound A-725, N4-{2-[4-(2-hydroxypropan-2-yl)piperidin-1-yl]phenyl}-N1,N1-dimethylbenzene-1,4-disulfonamide] returned an AC50 of 8.01 to 9.99 µM.

Molecule `COCC1(C)CCN(c2c(NS(=O)(=O)c3ccc(S(=O)(=O)N(C)C)cc3)ccc3nccn23)CC1` [Compound A-813, N4-{5-[4-(methoxymethyl)-4-methylpiperidin-1-yl]imidazo[1,2-a]pyridin-6-yl}-N1,N1-dimethylbenzene-1,4-disulfonamide] showed an AC50 of at least 10 µM.

`Cc1ccc(NS(=O)(=O)c2ccccc2N2CCC(c3ccc(Cl)cc3F)CC2)cc1` [Compound A-111, 2-(4-(4-chloro-2-fluorophenyl)piperidin-1-yl)-N-(p-tolyl)benzenesulfonamide] came in with an AC50 of at least 10 µM.

`CC1(C)CC2(CCN(c3ccccc3NS(=O)(=O)c3ccc4c(c3)OC3(CCC3)O4)CC2)CO1` [Compound A-723, N-(2-{3,3-dimethyl-2-oxa-8-azaspiro[4.5]decan-8-yl}phenyl)spiro[1,3-benzodioxole-2,1′-cyclobutane]-6-sulfonamide] returned a half-maximal activity concentration (AC50) of at most 2 µM.

As to `COc1ccc(Cl)cc1CS(=O)(=O)Nc1ccccc1N1CCN(C(=O)C(C)(C)C)CC1` [Compound A-563, 1-(5-chloro-2-methoxyphenyl)-N-{2-[4-(2,2-dimethylpropanoyl)piperazin-1-yl]phenyl}methanesulfonamide], the AC50 is at least 10 µM.

Take `CC1(C)CC2(CCN(c3ccccc3NS(=O)(=O)c3ccc4c(c3)COC4(C)C)CC2)CO1` [Compound A-700, N-(2-{3,3-dimethyl-2-oxa-8-azaspiro[4.5]decan-8-yl}phenyl)-1,1-dimethyl-1,3-dihydro-2-benzofuran-5-sulfonamide]: the AC50 was in the range of 2.01 to 8 µM.

In the case of `CN(C)S(=O)(=O)c1ccc(S(=O)(=O)Nc2ccccc2N2CCC3(CCOC3)CC2)cc1` [Compound A-422, N1,N1-dimethyl-N4-(2-{2-oxa-8-azaspiro[4.5]decan-8-yl}phenyl)benzene-1,4-disulfonamide], the AC50 was at most 2 µM.

As for `CN(C)S(=O)(=O)c1ccc(S(=O)(=O)Nc2ccccc2N2CCC(COC(C)(F)F)CC2)cc1` [Compound A-739, N4-(2-{4-[(1,1-difluoroethoxy)methyl]piperidin-1-yl}phenyl)-N1,N1-dimethylbenzene-1,4-disulfonamide], the AC50 was at most 2 µM.

The molecule `O=S(=O)(Nc1ccccc1N1CCC(c2ccc(Cl)cc2F)CC1)c1ccccc1F` [Compound A-79, N-{2-[4-(4-chloro-2-fluorophenyl)piperidin-1-yl]phenyl}-2-fluorobenzene-1-sulfonamide] gave an AC50 of at least 10 µM.
